{
  "source": "patent US20140186294A1",
  "about": "“PHAGOCYTIC ACTIVITY AS A MARKER OF SYNUCLEINOPATHIC DISEASE” (ELAN PHARMACEUTICALS, INC., priority 2010, published 2014)",
  "key": {"LRRK2 [1]": {"test_system": "LRRK2", "assay": "LRRK2 mRNA, protein and kinase activity in INF-γ treated microglia", "type": "cell-based", "settings": "INF-γ treatment of microglia", "description": "FIG. 16: INF-γ treatment of microglia induced LRRK2 mRNA transcript levels and protein levels by about 2 fold.\nWe have tested the effect of LRRK2 kinase inhibitors on phagocytosis in cells transformed with LRRK2 G2019S. We have a number of compounds known to inhibit LRRK2 kinase activity. Some of these compounds have enantiomers that are known inhibitors of either cFMS or PLK2 inhibitors but have minimal effect on LRRK2. Pairs of enantiomers one of which is known inhibitor of LRRK2 and one of which inhibits cFMS or PLK2 without substantially effect on LRRK2 can be used to measure LRRK2-specific effects on phagocytosis."}, "microglia [2]": {"test_system": "microglia", "assay": "Phagocytosis of 10 micron beads by INFγ treated microglia, with or without LRRK2 inhibitors", "type": "cell-based", "settings": "INFγ 24 hr"}, "[3]": {"test_system": "synuclein overexpressing cells", "assay": "Phagocytosis after INFγ overnight, synuclein overexpressing microglia", "type": "cell-based, mouse", "settings": "beads 90 minutes", "description": "(§1) To test a more physiologic system in which altered activation of LRRK2 and elevated synuclein may occur, we tested the effect of INFγ treatment on phagocytosis in wild type and synuclein-overexpressing microglia. As described above INFγ treatment naturally raises LRRK2 levels as well as increased LRRK2 phosphorylation and activity. Using our line 3 heterozygote X heterozygote crosses (generating homozygous alpha synuclein mice) in which, by culturing each pup separately wild type and synuclein overexpressing littermate cultures are generated. Microglia isolated from the various pups were exposed to INFγ overnight and which point […] beads were added for 90 minutes and phagocytosis was assessed while we were still blinded to the genotype of each culture. […] The ability of the environment to impact these pathways may help explain the incomplete penetrance and onset of Parkinson's symptoms observed with various familial forms of PD."}, "wild type microglia": {"test_system": "wild type microglia", "assay": "Phagocytosis after INFγ overnight, wild type littermate microglia", "type": "cell-based, mouse", "settings": "beads 90 minutes", "description": "as §1"}, "microglia [4]": {"test_system": "microglia", "assay": "Flow cytometry phagocytosis assay with strepavidin or biotin beads", "type": "cell-based", "settings": "30 minutes pretreatment, beads 90 minutes", "protocol": "Phagocytosis assay: 6 μm strepavidin beads or 5.2 μm biotin beads were added to microglia for 90 minutes. Cells were moved to ice and stained with either a biotin or strepavidin labeled antibodies to identify un-ingested beads. To confirm the ability to identify intra-verses extracellular bound beads by flow cytometry microglia were treated with Cytochalasin D for 30 minutes prior to the addition of beads."}, "H4 cells": {"test_system": "H4 cells", "assay": "Bead phagocytosis in H4 cells with tetracycline inducible synuclein transfected with Rab proteins", "type": "cell-based, human", "settings": "synuclein overexpressing H4 cells (tetracycline 48 hours), 4 μM beads 90 minutes", "protocol": "FIG. 11: Rabs proteins were transfected into a stable H4 cells containing a tetracycline inducible synuclein construct. Cells were treated or untreated with tetracycline for 48 hours and then fed 4 μM beads for 90 minutes and a phagocytic index calculated.\nIn quantifying phagocytosis in cells overexpressing synuclein we noticed that synuclein translocates to the phagocytic cup and localized with regions of active actin rearrangement. Under resting conditions synuclein resides in the cytoplasm and following 45 and 90 minutes of bead addition synuclein translocates to sites of actin polymerization and bead contact. SNARE complexes are composed of three components, a SNAP, a syntaxin, and a VAMP protein. These three proteins come together and prime vesicles for fusion with the plasma membrane. On fusion vesicles release their contents and SNARE complexes are disassembled by two adaptor proteins, NSF and α-SNAP. Some members from these dissociated complexes recycle back to the cytoplasm via recycling endosomes and can be used to prime subsequent fusion events. All three protein members of the SNARE complex are alpha helices and on assembly form an energy favorable, very unique SDS stable complex. Although these complexes resist SDS dissociation they will dissociate following boiling. Therefore one SNARE complexes can be flowed as SDS stable complexes in boiled and unboiled lysates. We hypothesized that defective vesicle mobilization may be associated with or due to altered SNARE complex formation of SNARE complex. H4 cells transfected with synuclein were fed beads for 15, 45, or 90 minutes, samples were lysed and run on western formation. […] Alterations in SNARE complexes were also observed in microglia isolated from synuclein genomic mice (data not shown). To elucidate how synuclein alters vesicle trafficking and SNARE complex formation/function we assessed interaction of synuclein with components of the SNARE family. […] To test the possibility that molecules which facilitate vesicle movement could overcome the ability of elevated levels of synuclein to block phagocytosis, a stable H4 cell line overexpressing synuclein was transfected with various Rab proteins. We verified that the Rab proteins were overexpressed and phagocytosis was assessed in wild type and synuclein over expressing cells."}, "LRRK2 [5]": {"test_system": "LRRK2", "assay": "LRRK2 phosphorylation in stimulated murine microglia (PT1967 P-LRRK2 antibody)", "type": "cell-based, mouse", "settings": "primary microglia stimulated for various times", "protocol": "Although neurons express LRRK2, this expression appears to be low relative to that of B-cells and macrophages. […] For example, murine microglia were stimulated with MCSF for various times or […] beads for 30 minutes. LRRK2 phosphorylation was probed with PT1967 P-LRRK2 antibody."}},
  "data": [
    {"molecule": "INFγ: interferon gamma, described as agonist of LRRK2", "values": [
      {"measurement": "induction of LRRK2 mRNA transcript levels", "setting": "LRRK2 [1]", "value": "about 2 fold"},
      {"measurement": "induction of LRRK2 protein levels", "setting": "LRRK2 [1]", "value": "about 2 fold"},
      {"measurement": "phagocytosis of 10 micron beads", "setting": "microglia [2]", "value": "increased phagocytosis"},
      {"measurement": "phagocytosis", "setting": "[3]", "value": "even further reduction in phagocytosis"},
      {"measurement": "phagocytosis", "setting": "wild type microglia", "value": "enhanced phagocytosis"}
    ]},
    {"molecule": "C=C1[C@@H](C)[C@H]2[C@H](Cc3ccccc3)NC(=O)[C@]23[C@H](OC(C)=O)/C=C/[C@@](C)(O)C(=O)[C@@H](C)C/C=C/[C@H]3[C@@H]1O", "note": "[Cytochalasin D]", "values": [
      {"measurement": "phagocytosis of 5 and 6 micron beads", "setting": "microglia [4]", "value": "blocked this phagocytosis"}
    ]},
    {"molecule": "Rab11b: Rab protein (Swiss Prot Q15907) overexpressed by transfection in H4 cells (protein, UniProt Q15907 2-215, looked up) Ras-related protein Rab-11B: GTRDDEYDYLFKVVLIGDSGVGKSNLLSRFTRNEFNLESKSTIGVEFATRSIQVDGKTIKAQIWDTAGQERYRAITSAYYRGAVGALLVYDIAKHLTYENVERWLKELRDHADSNIVIMLVGNKSDLRHLRAVPTDEARAFAEKNNLSFIETSALDSTNVEEAFKNILTEIYRIVSQKQIADRAAHDESPGNNVVDISVPPTTDGQKPNKLQCC", "values": [
      {"measurement": "phagocytosis (phagocytic index)", "setting": "H4 cells", "value": "rescued synuclein modulation of phagocytosis"},
      {"measurement": "phagocytosis (phagocytic index)", "setting": "H4 cells; listed as Rab11B", "value": "restored phagocytosis"}
    ]},
    {"molecule": "MCSF: stimulus that engages the actin cytoskeleton, used on murine microglia (protein, UniProt P07141 33-552, looked up) Macrophage colony-stimulating …: KEVSEHCSHMIGNGHLKVLQQLIDSQMETSCQIAFEFVDQEQLDDPVCYLKKAFFLVQDIIDETMRFKDNTPNANATERLQELSNNLNSCFTKDYEEQNKACVRTFHETPLQLLEKIKNFFNETKNLLEKDWNIFTKNCNNSFAKCSSRDVVTKPDCNCLYPKATPSSDPASASPHQPPAPSMAPLAGLAWDDSQRTEGSSLLPSELPLRIEDPGSAKQRPPRSTCQTLESTEQPNHGDRLTEDSQPHPSAGGPVPGVEDILESSLGTNWVLEEASGEASEGFLTQEAKFSPSTPVGGSIQAETDRPRALSASPFPKSTEDQKPVDITDRPLTEVNPMRPIGQTQNNTPEKTDGTSTLREDHQEPGSPHIATPNPQRVSNSATPVAQLLLPKSHSWGIVLPLGELEGKRSTRDRRSPAELEGGSASEGAARPVARFNSIPLTDTGHVEQHEGSSDPQIPESVFHLLVPGIILVLLTVGGLLFYKWKWRSHRDPQTLDSSVGRPEDSSLTQDEDRQVELPV", "values": [
      {"measurement": "LRRK2 phosphorylation", "setting": "LRRK2 [5]", "value": "can be enhanced"}
    ]},
    {"molecule": "Rab3b: Rab protein (Swiss Prot P20337) overexpressed by transfection in H4 cells (protein, UniProt P20337 2-219, looked up) Ras-related protein Rab-3B: ASVTDGKTGVKDASDQNFDYMFKLLIIGNSSVGKTSFLFRYADDTFTPAFVSTVGIDFKVKTVYRHEKRVKLQIWDTAGQERYRTITTAYYRGAMGFILMYDITNEESFNAVQDWATQIKTYSWDNAQVILVGNKCDMEEERVVPTEKGQLLAEQLGFDFFEASAKENISVRQAFERLVDAICDKMSDSLDTDPSMLGSSKNTRLSDTPPLLQQNCSC", "values": [
      {"measurement": "phagocytosis (phagocytic index)", "setting": "H4 cells", "value": "rescued synuclein modulation of phagocytosis"},
      {"measurement": "phagocytosis (phagocytic index)", "setting": "H4 cells; listed as Rab3B", "value": "restored phagocytosis"}
    ]},
    {"molecule": "INFγ: interferon gamma, described as agonist of LRRK2 (protein, UniProt P01579 24-161, looked up) Interferon gamma: QDPYVKEAENLKKYFNAGHSDVADNGTLFLGILKNWKEESDRKIMQSQIVSFYFKLFKNFKDDQSIQKSVETIKEDMNVKFFNSNKKKRDDFEKLTNYSVTDLNVQRKAIHELIQVMAELSPAAKTGKRKRSQMLFRG", "values": [
      {"measurement": "LRRK2 kinase activity (LRRK2 phosphorylation, LRRK-tide phosphorylation assay)", "setting": "LRRK2 [1]", "value": "apparent increase in LRRK2 kinase activity"}
    ]}
  ]
}
